Columns and labels:
wheat leaf blight fungus = assay: Test Example 3: growth of wheat leaf blight fungus in YBG medium, microtiter plate; format: cell-based, Mycosphaerella graminicola; conditions: 18° C., six days, absorbance 550 nm
Method: The present compound 1 or the present compound 2-1 was dissolved into dimethyl sulfoxide such that each concentration of the present compound 1 or the present compound 2-1 was adjusted to one hundred fifty times as much as the concentration indicated in the below-mentioned Table 5. The resultant agent solution was dispensed into a microtiter plate (with 96 wells) in 1 μl portion thereof per well. One hundred forty nine (149) μl of YBG medium (which was prepared by dissolving 10 g of yeast extract, 10 g of Bacto Peptone, and 20 mL of glycerol into 1 L of water, followed by sterilizing the medium) was dispensed into the wells to which the agent solution(s) was/were dispensed. The plate was cultivated at 18° C. for six days, thereby allowing wheat leaf blight fungus to undergo proliferation, and the absorbance at 550 nm of each well of the micro titer plate was then measured to examine a degree of growth of the wheat leaf blight fungus (hereinafter referred to as “treated group”).
Whereas, wheat leaf blight fungus was proliferated similarly to the case of the treated group except that dimethyl sulfoxide was used instead of the agent solution, and the degree of the growth was examined (hereinafter referred to as “untreated group”). The efficacy was calculated from the respective obtained degree of growth by the below-mentioned “Equation 1”. […]

[1] = test system: wheat rust fungus (Puccinia recondita); assay: Test Example 4: foliar spray of flowable formulations on wheat, wheat rust lesion area; format: in vivo; conditions: foliar spray on wheat one day before inoculation, lesion area after ten days at 23° C.
Method: Five (5) parts of the present compound 1, 35 parts of a mixture of white carbon and ammonium polyoxyethylene alkyl ether sulfate (the weight ratio of 1:1) and […] of water were mixed, and the mixture was then finely-ground by a wet grinding method to obtain a flowable formulation comprising the present compound 1. Separately, the flowable formulation comprising the present compound 2-1 was prepared according to the above-mentioned similar method except that the present compound 2-1 was used instead of the present compound 1 to form a flowable formulation comprising the present compound 2-1.
Each of the above-mentioned respective flowable formulations, and the flowable formulation comprising the present compound 1 and the present compound 2-1 that was prepared according to the above-mentioned Formulation Example 3 was diluted with water such that each concentration of the respective compounds in the dilution solutions was adjusted to that indicated in Table 6, to prepare the dilution solutions, respectively.
A plastic pot was filled with soil, and thereto wheat (cultivar. Shirogane) was seeded, and the plants were grown in a greenhouse for ten days. […]
From each of the lesion area of the treated group and the untreated group, respectively, the efficacy of the treated group was calculated by the below-mentioned Equation 2. […]

CC1CC(C)(C)c2cccc(NC(=O)c3cn(C)nc3C(F)F)c21 (stereo not shown) [Present compound 1]
Efficacy (%) (wheat leaf blight fungus; concentration in medium 0.005 ppm): 15% | Efficacy (%) (wheat leaf blight fungus; concentration in medium 0.1 ppm): 70% | Efficacy (%) ([1]; 0.0005 ppm): 56% | Efficacy (%) ([1]; 0.01 ppm): 68%
